# Assay results as given in patent US8623911B2, “Boron-containing small molecules as anti-protozoal agent” (Anacor Pharmaceuticals, Inc., priority 2010, dated 2014).
# Like-named read-outs stand apart in the source and are kept apart here.
# Assays:
# [1] = tested on: TREU 667 strain of T. b. brucei; assay: Chronic CNS Model [Murine Stage 2 HAT]; type: in vivo; conditions: 50 mg/kg PO BID for 7 days, starting at Day 21 post-infection
# Protocol: Mice were infected with 10,000 parasites of the TREU 667 strain of T. b. brucei. Twenty one days post-infection mice were treated with a dose of between 6 and 100 mg/kg of a compound of the invention, either BID or QD for 7 days intraperitoneally (IP) or orally (PO). Positive control mice were treated with Diminazene (10 mg/kg, IP) on Day 4 post-infection. Negative control mice were treated with Diminazene (10 mg/kg, PO) on Day 21. Since Diminazene is not able to penetrate the CNS, mice treated at Day 21 are not able to cure the infection. Starting 1 week after treatment, mice were checked for parasitemia by microscopic examination of smears prepared from tail vein blood. Parasite positive animals were immediately removed from the cages and euthanized. Animals were considered to be cured of a CNS infection if they were aparasitemic for at least 180 days after the end of the treatment period.
# [2] = Pharmacokinetic studies in mice (plasma and brain, IV and oral gavage); type: in vivo, male CD-1 mice; conditions: for AUC(0-t) / clearance / AUC(0-inf) / Vd / CL/F / half-life: male, CD-1, mouse; for AUC(0-t): read-out: Exposure/trapezoid AUC0-last; for clearance: read-out: Clearance Cl (converted); for AUC(0-inf): read-out: Exposure/trapezoid AUC0-inf; for Vd: read-out: Vdss; for CL/F: read-out: Oral Clearance Cl/F (converted); for half-life: read-out: t½ (converted); for Cmax: mouse, male CD-1 mice
# Protocol: Male CD-1 mice weighing approximately 20 to 30 g received the test article M1 by either intravenous (IV) or oral gavage (OG) routes. Animals in the IV group (11 animals, 1 per time point) received a single bolus injection at a nominal dose level of 2 mg/kg of the test article. Animals receiving oral doses were administered the test article as a single OG dose (10 animals per dose level, 1 per time point) at nominal dose levels of 25 and 50 mg/kg. IV doses were administered as a solution in 5% (w/v) dextrose in sterile water for injection. OG doses at 25 and 50 mg/kg were administered as suspensions in 5% (w/v) dextrose in sterile water for injection and as in situ sodium salts in 5% (m/v) dextrose: 2% (v/v) ethanol in DWI, respectively. All dose solutions were delivered at 4 mL/kg. Animals receiving the IV dose at 2 mg/kg or the OG dose at 25 mg/kg were not fasted. Animals receiving the OG dose at 50 mg/kg were fasted for 4 hours before dosing and for 1 hour after dosing. Blood and brain tissue were collected from 1 animal/timepoint/group at 0.17, 0.5, 1, 2, 3, 4, 6, 8, 12, 18 and 24 hr after IV dosing, and at 0.5, 1, 2, 3, 4, 6, 8, 12, 18 and 24 hr after OG dosing. Whole blood samples were processed completely to plasma following collection. Plasma and brain tissue were submitted to bioanalysis to determine pharmacokinetic parameters and test article CNS disposition. Plasma and brain tissue from non-dosed animals were collected to serve as surrogate pre-dose samples. Bioanalysis for test article in plasma and brain tissue was performed by HPLC with tandem mass spectrometry (LC-MSMS). Plasma samples were treated with 4 volumes of 0.5% formic acid in methanol to precipitate plasma proteins. Treated samples were centrifuged and supernatants removed for analysis. Brain tissues were massed and homogenized mechanically in the presence of 1 volume of phosphate-buffered saline (PBS). The resulting tissue homogenates were then diluted with a further volume of PBS, and then treated in the same manner as plasma. Extracted samples were assayed for test article by means of LC-MSMS employing reversed-phase chromatography coupled to a triple quadrupole mass spectrometer employing electrospray ionization in the positive ion mode. The analytical column was a Phenomenex Luna 3μ C8 50×2 mm, with an online sample purification step performed on a Phenomenex Synergi 4μ Polar RP 50×2 mm column. Test articles were eluted using a binary mobile phase gradient comprising 5 mM Ammonium Acetate: 0.1% formic acid in either MeOH or H2O. Non-compartmental analysis of plasma test article concentration versus time was performed in Microsoft Excel to generate pharmacokinetic parameters including: area under the curve (AUC), clearance (as Cl or Cl/F), volume of distribution (Vdss), half-life (t½), and bioavailability (F).
# [3] = oral delivery to mice, 25 and 50 mg/kg
structure (smiles),measurement,setting,value
"O=C(Nc1ccc2c(c1)B(O)OCC2)c1ccc(F)cc1C(F)(F)F [M1, 4-Fluoro-N-(1-hydroxy-3,4-dihydro-1H-benzo[c][1,2]oxaborinin-7-yl)-2-trifluoromethyl-benzamide]",mice with absence of blood parasites through Day 180,[1],100%
same,period brain concentrations are maintained above the MIC,[2]; OG dosing at 25 mg/kg,approximately 5 hours
same,period brain concentrations are maintained above the MIC,[2]; OG dosing at 50 mg/kg,~10 h
same,AUC(0-t),"[2]; brain, IV 2 mg/kg, last = 12 hours",700 ng·h/mL
same,clearance,"[2]; brain, IV 2 mg/kg",42.3 mL/min/kg
same,AUC(0-inf),"[2]; brain, IV 2 mg/kg",890 ng·h/mL
same,Vd,"[2]; brain, IV 2 mg/kg",17.1 L/kg
same,AUC(0-t),"[2]; brain, oral 25 mg/kg, last = 12 hours",14300 ng·h/mL
same,AUC(0-inf),"[2]; brain, oral 25 mg/kg",14400 ng·h/mL
same,CL/F,"[2]; brain, oral 25 mg/kg",29.2 mL/min/kg
same,AUC(0-t),"[2]; brain, oral 50 mg/kg, last = 12 hours",22900 ng·h/mL
same,AUC(0-inf),"[2]; brain, oral 50 mg/kg",24700 ng·h/mL
same,CL/F,"[2]; brain, oral 50 mg/kg",36.5 mL/min/kg
same,AUC(0-t),"[2]; plasma, IV 2 mg/kg, last = 24 hours",1580 ng·h/mL
same,clearance,"[2]; plasma, IV 2 mg/kg",27.8 mL/min/kg
same,AUC(0-inf),"[2]; plasma, IV 2 mg/kg",1610 ng·h/mL
same,Vd,"[2]; plasma, IV 2 mg/kg",5 L/kg
same,half-life,"[2]; plasma, IV 2 mg/kg",6.88 h
same,AUC(0-t),"[2]; plasma, oral 25 mg/kg, last = 24 hours",6390 ng·h/mL
same,AUC(0-inf),"[2]; plasma, oral 25 mg/kg",6460 ng·h/mL
same,CL/F,"[2]; plasma, oral 25 mg/kg",64.5 mL/min/kg
same,half-life,"[2]; plasma, oral 25 mg/kg",5.29 h
same,AUC(0-t),"[2]; plasma, oral 50 mg/kg, last = 24 hours",81400 ng·h/mL
same,AUC(0-inf),"[2]; plasma, oral 50 mg/kg",83400 ng·h/mL
same,CL/F,"[2]; plasma, oral 50 mg/kg",10.2 mL/min/kg
same,Cmax,"[2]; brain, oral 25 mg/kg",5840 ng/mL
same,Cmax,"[2]; brain, oral 50 mg/kg",4210 ng/mL
same,Cmax,"[2]; plasma, oral 25 mg/kg",2230 ng/mL
same,Cmax,"[2]; plasma, oral 50 mg/kg",13400 ng/mL
same,dose proportionality of brain exposure,[2]; [3],approximately proportional
same,dose proportionality of plasma exposure,[2]; [3],superproportional increase
same,period for which brain:plasma ratio is greater than unity,[2]; oral dose of 25 mg/kg,approximately 4 hours
same,brain:plasma ratio,"[2]; oral dose of 25 mg/kg, for approximately 4 hours following dosing",greater than unity
same,F (% of IV),"[2]; plasma, oral 25 mg/kg",43.2 % of IV
